What was measured:
[1] = tested on: CD-1 male mice; parameters: method as in Bilel et al. ([2020]); details: i.p., value ± SEM, elaborated from earlier data, ref Bilel et al. ([2020]); cited from earlier work
[2] = biological target: CB1 receptors; parameters: method as in Howlett et al. [2002]; Hess et al. [2015]; details: ref Howlett et al. [2002]; Hess et al. [2015]; read-out: CB1 receptor Ki; cited from earlier work
[3] = tested on: CD-1 male mice; parameters: method as in Bilel et al. ([2020]); details: i.p., value ± SEM, elaborated from earlier data, ref Bilel et al. ([2020]); cited from earlier work; remark: listed apart in the source
[4] = biological target: T1, human CB2 receptors (Homo sapiens, UniProt P34972); assay: Cyclic AMP assay, hCB2 CHO cells; type: cell-based; details: for agonist behaviour (inhibition of forskolin-stimulated cAMP production): CHO cells, human CB2
T1 construct: host or cells: CHO cells
T1 sequence (P34972 whole entry): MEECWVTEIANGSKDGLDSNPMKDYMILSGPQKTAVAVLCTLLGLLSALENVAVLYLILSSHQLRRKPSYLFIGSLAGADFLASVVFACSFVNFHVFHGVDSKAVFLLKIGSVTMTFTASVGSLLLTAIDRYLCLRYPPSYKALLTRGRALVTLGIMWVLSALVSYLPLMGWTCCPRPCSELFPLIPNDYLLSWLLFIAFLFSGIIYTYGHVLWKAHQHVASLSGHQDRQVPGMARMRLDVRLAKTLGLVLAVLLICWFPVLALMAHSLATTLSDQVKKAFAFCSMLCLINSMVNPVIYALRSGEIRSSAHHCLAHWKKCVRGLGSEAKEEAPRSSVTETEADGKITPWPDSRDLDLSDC
Method: CHO cells transfected with human CB1 or CB2 receptors were washed with PBS, detached with trypsin, and centrifuged for 10 min at 200 × g. The pellet containing 1 × 10^6 cells/assay was suspended in 0.5 ml of buffer containing150 mM NaCl, 2.7 mM KCl, 0.37 mM NaH2PO4, 1 mM MgSO4, 1 mM CaCl2, 5 mM HEPES, 10 mM MgCl2, and 5 mM glucose, at pH 7.4 and 37 °C. Cells were pre-incubated with 0.5 mM of the phosphodiesterase inhibitor 4-(3-butoxy-4-methoxybenzyl)-2-imidazolidinone (Ro 20–1724;) for 10 min in a shaking bath at 37 °C. The potency of the examined compounds to inhibit adenylate cyclase activity was determined in the presence of forskolin 1-µM stimulation. The reaction was terminated by the addition of cold 6% trichloroacetic acid (TCA) and the final aqueous solution was tested for cyclic AMP levels by a competition protein binding assay (AlphaScreen cAMP Detection Kit, Cat. Number 6760635D, Perkin Elmer Life and Analytical Sciences, USA) following the manufacturer’s instructions; Vincenzi et al. [2013]).
The protein concentration was determined according to a Bio-Rad method (500–0006; Bio-Rad Laboratories, Hercules, CA, USA) with bovine serum albumin as a reference standard. Inhibitory binding constants, Ki, were calculated from the IC50 values according to the Cheng and Prusoff equation: Ki = IC50/(1 + [C*]/KD*), where [C*] is the concentration of the radioligand and KD* its dissociation constant. Functional experiments were analyzed by non-linear regression analysis using the equation for a sigmoid concentration–response curve (GraphPad Prism, USA). All the data are expressed as the mean ± SEM of three independent experiments.

[5] = tested on: CD-1 male mice; parameters: method as in Bilel et al. [2020]; details: ref Bilel et al. [2020]; cited from earlier work
[6] = tested on: CD-1 male mice; parameters: method as in Bilel et al. ([2020]); details: i.p., value ± SEM, elaborated from earlier data, ref Bilel et al. ([2020]); cited from earlier work; remark: listed apart in the source
[7] = tested on: CD-1 male mice; assay: Visual object response test; type: in vivo, mouse
Method: For the overall study 234 mice were used. In sensorimotor (visual object, visual placing, acoustic, and overall tactile responses) tests for MAM-2201, experiments for each treatment dose (vehicle or 5 different MAM-2201 doses, 0.01, 0.1, 1, 3, and 6 mg/kg) used 8 mice (total mice used: 48) and for MAM-2201 with AM-251 pretreatment, experiments for each dose regimen (vehicle + AM-251 or MAM-2201 + AM-251, 6 mg/kg) used 16 mice. In the analysis of spontaneous locomotion (open field test) for MAM-2201, experiments for each treatment regimen (vehicle or 4 different MAM-2201 doses, 0.01, 0.1, 1, and 6 mg/kg) used 10 mice (total mice used: 50). In the PPI test for MAM-2201, experiments for each treatment (vehicle or 3 different MAM-2201 doses, 0.01, 0.1, and 1 mg/kg) used 10 mice (total mice used: 40), while for MAM-2201 experiments in the Novel Object Recognition (NOR) test for each treatment regimen (vehicle or 3 different MAM-2201 and vehicle or 3 different AM-2201 doses, 0.01, 0.1, and 1 mg/kg) used 10 mice (total mice used: 80). In the present study the effect of MAM-2201 on sensorimotor responses was investigated using a battery of behavioral tests widely used in studies of “safety-pharmacology,” that we routinely adopted in our laboratory, for the preclinical characterization of new molecules in rodents (Ossato et al. [2015]; Vigolo et al. [2015]; Bilel et al. [2020]). The voluntary and involuntary motor responses of the animal to different visual, acoustic, and tactile stimuli were evaluated according to the procedure described in our previous studies (Ossato et al. [2015]; Bilel et al. [2020]). To reduce the number of animals used, mice were evaluated in functional observational tests carried out in a consecutive manner according to the following time scheme: observation of visual object responses (frontal and lateral view), acoustic response, tactile response (vibrissae, corneal and pinnae reflexes), and visual placing response. Sensorimotor tests were measured at 10, 30, 60, 120, 180, 240, and 300 min after injections for the evaluation of the visual object, acoustic and the tactile response, and at 15, 45, 75, 135, 195, 255, and 315 min after injections for the evaluation of visual placing response. Behavioral tests were conducted in a thermostated (temperature: 20–22 °C, humidity: 45–55%) and light (150 lx) controlled room with a background noise of 40 ± 4 dB. The apparatus for the visual object, acoustic and tactile sensorimotor tests consisted of an experimental chamber (350 × 350 × 350 mm) with black methacrylate walls and a transparent front door. During the week before the experiment, each mouse was placed in the box and handled (once a day) on every other day, i.e., 3 times, to get used to both the environment and the experimenter. To avoid olfactory cues, cages were carefully cleaned with a dilute (5%) ethanol solution and rinsed with water. All experiments were performed between 8:30 AM and 2:00 PM and conducted by trained observers working in pairs who were blinded to the treatment being tested (Ossato et al. [2015]). The behavior of mice was videotaped by a camera (B/W USB Camera day & night with varifocal lens; Ugo Basile, Italy) placed at the top or on one side of the box and analyzed off-line by a different trained operator. Spontaneous locomotion studies were conducted in a separate set of animals through ANYMAZE test. Sensory gating was evaluated by analysis of the pre-pulse inhibition (PPI) of the acoustic startle reflex as previously described (Bilel et al. [2020]).
Visual object response test was used to evaluate the ability of the mouse to see an object approaching from the front (frontal view) or the side (lateral view) that typically induces the animal to shift or turn the head, bring the forelimbs in the position of “defense” or retreat from it. For the frontal visual response, a white horizontal bar was moved frontally to the mouse head and the maneuver was repeated 3 times. […]

Compound | ED50 (mg/kg), Visual object [1] [mg/kg] | Ki [2] [nM] | ED50 (mg/kg), Overall tactile [3] [mg/kg] | IC50 [4] [nM] | agonist behaviour (inhibition of forskolin-stimulated cAMP production) [4] | time during which distance traveled was reduced [5] | ED50 (mg/kg), Startle reflex [6] [mg/kg] | effect on visual object response ([7]; 0.01 mg/kg i.p., at 30 min after injection) | effect on visual object response ([7]; 0.1 mg/kg i.p.) | effect on visual object response ([7]; 1 mg/kg i.p., at 30 min) | effect on visual object response ([7]; 3 and 6 mg/kg i.p., until end of test (5 h)) | ED50 ([7]; Mus musculus, ip, mice, value ± SEM, dose for 50% of overall mean effect) [mg/kg]
O=C(c1cccc2ccccc12)c1cn(CCCCCF)c2ccccc12 [AM-2201, 1-[(5-Fluoropentyl)-1H-indol-3-yl](1-naphthylenyl) methanone] | 1.976 ± 0.063 | 1 | 2.120 ± 0.013 | 31.8 ± 2.9 | full agonists | up to 45 min | 1.291 ± 0.010 | – | – | – | – | –
Cc1ccc(C(=O)c2cn(CCCCCF)c3ccccc23)c2ccccc12 [MAM-2201, 1-[(5-fluoropentyl)-1H-indol-3-yl](4-methyl-1-naphthalenyl) methanone] | – | 2.07 ± 0.82 | – | 22.4 ± 3.8 | full agonists | – | – | transiently reduced | long-lasting inhibition | total inhibition | deep and prolonged impairment | 1.14 ± 0.089

Reference: publication PMC10272271, “MAM-2201 acute administration impairs motor, sensorimotor, prepulse inhibition, and memory functions in mice: a comparison with its analogue AM-2201” (Psychopharmacology, 2023)
